Reference: PubChem BioAssay (NCI)
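Five concentrations, 48 hours, 96-well plates. The concentration for full growth arrest is given as TGI.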 Where a SMILES comes first, the peptide text is derived from it. The star is where a group is joined. Boc = CC(C)(C)OC(=O)*; OBn = c1ccc(CO*)cc1

Tests used:
Assay in all cases: NCI tumour cell line growth inhibition, 48 h
HOP-62 NSCLC = test system: HOP-62 NSCLC
MDA-MB-231 breast = test system: MDA-MB-231 breast
MALME-3M melanoma = test system: MALME-3M melanoma
TK-10 renal = test system: TK-10 renal
HL-60(TB) leukemia = test system: HL-60(TB) leukemia
SF-539 CNS = test system: SF-539 CNS
PC-3 prostate = test system: PC-3 prostate
SN12C renal = test system: SN12C renal
NCI-H460 lung = test system: NCI-H460 lung
M14 melanoma = test system: M14 melanoma

Row | Structure (SMILES) | TGI (HOP-62 NSCLC) [µM] | TGI (MDA-MB-231 breast) [µM] | TGI (MALME-3M melanoma) [µM] | TGI (TK-10 renal) [µM] | TGI (HL-60(TB) leukemia) [µM] | TGI (SF-539 CNS) [µM] | TGI (PC-3 prostate) [µM] | TGI (SN12C renal) [µM] | TGI (NCI-H460 lung) [µM] | TGI (M14 melanoma) [µM]
1 | O=c1[nH]c(=O)n(Cc2ccccc2CO)cc1Sc1ccccc1 | > 100 | 33.8 | 41.5 | > 100 | > 100 | 93.9 | > 100 | > 100 | > 100 | 41.2
2 | O=C1C=C(Br)c2c(Br)sc(Br)c21 | > 79.9 | 33.9 | 35.2 | 23.5 | 29.2 | 18.2 | 26.4 | 38.3 | > 61.8 | 15
3 | CN(C)CCNC(=O)c1cccc2nc3c(nc12)-c1ccccc1C3=O | 16.6 | 23.8 | 24.2 | 56.6 | 22.7 | 27 | 35 | 28.9 | 18.9 | 31.9
4 | CNC(=O)c1cc(NC(=O)N(CCC#N)CCN(C(=O)N[C@@H](Cc2ccccc2)C(=O)N[C@@H](CC(C)C)C(=O)NC)c2ccccc2)ccc1OC | > 100 | > 60.3 | 38.5 | > 100 | > 100 | > 66.3 | > 100 | > 85.1 | 50.9 | > 100
5 | Oc1ccc(SCc2cc(O)c(O)c(O)c2)cc1 | 56.4 | > 100 | > 100 | > 100 | > 100 | > 100 | > 100 | 74.9 | 36.7 | 33.1
6 | O=C1Cc2c([nH]c3ccc(Br)cc23)-c2ccccc2N1 | > 100 | > 100 | > 100 | > 100 | > 53.8 | > 27.8 | > 100 | > 100 | > 100 | > 100
7 | CC(C)(C)C1(COC(=O)c2ccc(N)cc2)COC1 | > 100 | > 100 | > 100 | > 100 | > 100 | > 100 | > 100 | > 100 | > 100 | > 100
8 | CCOC(=O)/C=C(\C(=O)OCC)n1ccc(N)nc1=O | > 100 | > 100 | > 100 | > 100 | > 100 | > 100 | > 100 | > 100 | > 100 | > 100
9 | C=CCSC1=N/C(=C\c2ccccc2)C(=O)N1CC=C | > 100 | > 100 | > 100 | > 100 | 18.7 | > 100 | > 75.8 | > 100 | > 100 | > 100
10 | O=C1C(Br)=CC2(C=C1Br)CCNC1=C2C(=O)c2cccnc2C1=O | 21.3 | 31.1 | 21.5 | 35.9 | 15.8 | 20.9 | 39.7 | 25.1 | 19.8 | 21.3
11 | O=[N+]([O-])c1ccc(N=Nc2c(O)c(S(=O)(=O)O)cc3cc(S(=O)(=O)O)ccc23)cc1 | > 100 | > 100 | > 100 | > 100 | > 100 | > 100 | > 100 | > 100 | > 100 | > 100
12 | CC(NC(=O)C(NC(=O)OC(C)(C)C)C(C)C)C(=O)N1CCCC1C(=O)NCC(=O)NC(C(=O)NCC(=O)OCc1ccccc1)C(C)C (stereo not given) (Boc-VAPGVG-OBn; configuration not given here) | > 100 | > 100 | > 100 | > 100 | > 100 | > 100 | > 100 | > 100 | > 100 | > 100
13 | CC(C)c1ccc(/C=C2\CSCC3=C2NC(=S)NC3c2ccc(C(C)C)cc2)cc1 (stereo not given) | > 100 | > 100 | > 100 | > 100 | > 100 | > 100 | > 100 | > 100 | > 100 | > 100
14 | COc1ccc(N=N/C(=N/NC(=O)c2ccccc2)c2ccc(N(CCC#N)CCC#N)cc2C)cc1 | > 100 | > 100 | > 100 | > 100 | > 100 | 70 | > 100 | > 100 | > 100 | > 100
15 | CCOc1nc(-c2ccccc2)cc(-c2ccc(N3CCOCC3)cc2)c1C#N | > 100 | > 100 | > 100 | > 100 | > 100 | > 100 | > 100 | > 100 | > 100 | > 100
16 | O=C1COc2ccc([N+](=O)[O-])cc2C(=O)C1 | > 10 | > 10 | > 10 | > 10 | > 10 | > 10 | > 10 | > 10 | > 10 | > 10
17 | O=C(OCc1ccccc1)C1(N2CN(C3(C(=O)OCc4ccccc4)CCCC3)CN(C3(C(=O)OCc4ccccc4)CCCC3)C2)CCCC1 | > 10 | > 10 | > 10 | > 10 | > 10 | > 10 | > 10 | > 10 | > 10 | > 10
18 | CCOC(=O)/C=C(/C(=O)OCC)n1cc(C)c(=O)n(Cc2cn(COCCOC(C)=O)nn2)c1=O | > 100 | 50.9 | 23.7 | 29.2 | 84 | 38.1 | > 100 | 59.8 | > 63.1 | > 100
19 | COc1cc(CC2c3cc(OC)c(OC)cc3CCN2C)c(Oc2cc3c(cc2OC)-c2c(O)c(OC)cc4c2C(C3)N(C)CC4)cc1OC (stereo not given) | > 100 | 37.7 | 53.8 | 51.3 | 17.9 | 30.3 | 94.6 | 42 | 44.8 | 22.8
20 | Cc1[nH]c2ccccc2c1C=Nc1ccc(N=Cc2c(C)[nH]c3ccccc23)cc1 | > 100 | > 100 | > 100 | > 100 | 41.8 | > 100 | > 100 | > 100 | > 100 | > 100
21 | C=CCNC(=O)NC1=CSC2=NC(=O)C3(NN12)c1ccccc1-c1ccccc13 | > 10 | > 10 | > 10 | > 10 | > 10 | > 10 | > 10 | > 10 | > 10 | > 10
22 | COC(=O)/C=C1\CCC(C)(C(=O)NS(=O)(=O)c2ccc(C)cc2)C1(C)C (stereo not given) | > 100 | > 100 | > 100 | > 100 | > 100 | > 100 | > 100 | > 100 | > 100 | > 100
23 | O=C1c2c(nc3ccccc3c2-c2ccccc2)CN1Nc1ccccn1 | > 100 | > 100 | > 100 | > 100 | > 100 | 99.5 | > 100 | > 100 | > 83.2 | > 100
24 | C(=C\c1ccccc1)/C=N/c1nc2cc3sc(/N=C/C=C/c4ccccc4)nc3cc2s1 | > 100 | > 100 | > 100 | > 100 | > 100 | > 100 | > 100 | > 100 | > 100 | > 100
25 | COc1ccc2c(c1)n([O-])c(C#N)c(N1CCN(c3ccc([N+](=O)[O-])cc3)CC1)[n+]2=O | > 71.4 | > 100 | 19.1 | > 100 | 29.1 | 6.23 | > 100 | > 100 | > 100 | > 100
26 | COc1cccc(N(CN2CC=CC2=O)C(C)=O)c1 | > 100 | > 100 | > 100 | > 100 | > 100 | > 100 | > 100 | > 100 | > 100 | > 100
